The structures appear in SMILES notation.

For the first test, the system named is Escherichia coli (ATCC25922) or Staphylococcus aureus (ATCC25923). Kind of test: Antibacterial MIC, microdilution method in Mueller-Hinton medium. Format: cell-based. Conditions: Escherichia coli, 18 h, MIC in E. coli or S. aureus; two-fold serial dilutions 64 to 0.5 μg/ml in duplicate; 18 hours of incubation at 35° C.; read-out: Potency (MIC). In outline: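 Two-fold serial dilutions from 64 to 0.5 μg/ml, in duplicate, by broth microdilution in Mueller-Hinton medium (NCCLS M7-A5). MIC taken as the lowest concentration preventing visible growth after 18 h at 35° C.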
Background: Dilution methods test growth across graded concentrations, often in twofold steps.
Turning to `Cc1cc(=O)oc2cc(Nc3nc(N4CCCCC4)nc(N4CCCC4)n3)ccc12.Cl` [7-[4-((3R,5S)-33,5-Diamino-piperidin-1-yl)-6-((3R,4S)-3,4-dihydroxy-pyrrolidin-1-yl)-[1,3,5]triazin-2-ylamino]-4-methyl-chromen-2-one], the minimum inhibitory concentration (MIC) (usually the lowest concentration found to suppress growth) is above 64 µg/mL. Turning to `Cc1cc(=O)oc2cc(Nc3nc(N4C[C@H](N)C[C@H](N)C4)nc(N4C[C@@H](N)C[C@@H](O)C4)n3)ccc12` [7-[4-((3S,5R)-3-Amino-5-hydroxy-piperidin-1-yl)-6-((3R,5S)-3,5-diamino-piperidin-1-yl)-[1,3,5]triazin-2-ylamino]-4-methyl-chromen-2-one], the minimal inhibitory concentration (MIC) was above 64 µg/mL.

Consider `N[C@@H]1C[C@H](N)CN(c2nc(N3CCC(n4c(=O)[nH]c5ccccc54)CC3)nc(N3C[C@H](N)C[C@H](N)C3)n2)C1` [8-(4,6-Bis-((3R,5S)-3,5-0diamino-piperidin-1-yl)-[1,3,5]triazin-2-yl)-1-phenyl-1,3,8-triaza-spiro[4.5]decan-4-one], for which the MIC was above 64 µg/mL. On the same count and under the same terms, for `COC(=O)c1ccc(Nc2nc(N3CCCCC3)nc(N3CCCCC3)n2)c(O)c1` [44-[4,6-Bis-((3R,5S)-3,5-diamino-piperidin-1-yl)-[1,3,5]triazin-2-ylamino]-3-hydroxy-benzoic acidmethyl ester] the value was above 64 µg/mL; for `N[C@@H]1C[C@H](N)CN(c2cc(N3C[C@H](N)C[C@H](N)C3)cc(N(c3ccc([N+](=O)[O-])cc3)c3ccc([N+](=O)[O-])cc3)c2)C1` [(3,5-Bis-((3R,5S)-3,5-diamino-piperidin-1-yl)-phenyl)-bis-(4-nitro-phenyl)-amine], below 64 µg/mL. In the case of `Cl.NC1CCCN(c2nc(Nc3ccc(Cl)c(Cl)c3)nc(N3CCCCC3)n2)C1` [(3R,5S)-1-[4-(3-Amino-piperidin-1-yl)-6-(3,4-dichloro-phenylammino)-[1,3,5]triazin-22-yl]-piperidine-3,5-diamine], the MIC was below 64 µg/mL.

For `Cl.NC1CCN(c2nc(Nc3ccc(Cl)c(Cl)c3)nc(N3C[C@H](N)C[C@H](N)C3)n2)CC1` [(3R,5S)-1-[4-(4-Amino-piperidin-1-yl)-6-(3,4-dichloro-phenylamino)-[1,3,5]triazin-2-yl]-piperidine-3,5-diamine], the MIC was below 64 µg/mL. In the case of `Cl.NC(=O)[C@H](CO)Nc1nc(N2C[C@H](N)C[C@H](N)C2)nc(N2C[C@H](N)C[C@H](N)C2)n1` [(S)-2-[4-((3R,5S)-3,5-Diamino-piperidin-1-yl)-6-((3S,5R)-3,5-diamino-piperidin-1-yl)-[1,3,5]triazin-2-ylamino]-3-hydroxy-propionamide], the minimal inhibitory concentration (MIC) is above 64 µg/mL. Same read-out and setting: for `CC12CC[C@](C(=O)Nc3ccc(Nc4nc(N5C[C@H](N)C[C@H](N)C5)nc(N5C[C@H](N)C[C@H](N)C5)n4)cc3O)(OC1=O)C2(C)C` [(S)-4,7,7-Trimethyl-3-oxo-2-oxa-bicyclo[2.2.1]heptane-1-carboxylic acid {4-[4,6-bis-((3R,5S)-3,5-diamino-piperidin-1-yl)-[1,3,5]triazin-2-ylamino]-2-hydroxy-phenyl}-amide] the value was below 64 µg/mL. With `COc1ccc(NC(=O)c2ccc(Cl)cc2O)c(Nc2nc(N3CCCCC3)nc(N3CCCCC3)n2)c1.Cl` [BN-[2-(4-chloro-2-hydroxy-benzoylamino)-5-methoxy-phenyl]-4,6-Bis-((3R,5S)-3,5-diamino-piperidin-1-yl)-[1,3,5]triazine-2-amine], the MIC is above 64 µg/mL. Take `CN(Cc1cccc2ccccc12)c1nc(N2CCCCC2)nc(N2CCCCC2)n1.Cl` [N,N-Methyl-naphthalen-1-ylmethyl-4,6-Bis-((3R,5S)-3,5-diamino-piperidin-1-yl)-[1,3,5]triazine-2-amine]: the minimal inhibitory concentration (MIC) is above 64 µg/mL. Same read-out and setting: for `Cl.N[C@@H]1C[C@H](N)CN(c2nc(Nc3ccc4[nH]cnc4c3)nc(N3C[C@H](N)C[C@H](N)C3)n2)C1` [N-(1H-benzoimidazol-5-yl)-4,6-Bis-((3R,5S)-3,5-diamino-piperidin-1-yl)-[1,3,5]triazine-2-amine] the value was below 64 µg/mL. Regarding `Cl.N[C@@H]1C[C@H](N)CN(c2nc(Nc3c[nH]c(=O)[nH]c3=O)nc(N3C[C@H](N)C[C@H](N)C3)n2)C1` [N-(2,4-dioxo-1,2,3,4-tetrahydro-pyrimidin-5-yl)-4,6-Bis-((3R,5S)-3,5-diamino-piperidin-1-yl)-[1,3,5]triazine-2-amine], the MIC was below 64 µg/mL. `COc1ccc(OC)c(Nc2nc(N3C[C@H](N)C[C@H](N)C3)nc(N3C[C@H](N)C[C@H](N)C3)n2)c1` [N-(2,5-dimethoxy-phenyl)-4,6-Bis-((3R,5S)-3,5-diamino-piperidin-1-yl)-[1,3,5]triazine-2-amine]: the MIC was above 64 µg/mL. For `Cl.O=C(CC(=O)c1ccc(Nc2nc(N3CCCCC3)nc(N3CCCCC3)n2)cc1)Nc1ccccc1Cl` [N-(2-Chloro-phenyl)-3-{4-[4-(3S,5R)-3,5-diamino-piperidin-1-yl)-6-((R)-3-hydroxy-piperidin-1-yl)-[1,3,5]triazin-2-ylamino]-phenyl}-3-oxo-propionamide], the MIC was below 64 µg/mL. The same measure, in the same setting: as for `COc1nc(Nc2ccc(C(=O)CC(=O)Nc3ccccc3Cl)cc2)nc(N2C[C@H](N)C[C@H](N)C2)n1.Cl` [N-(2-Chloro-phenyl)-3-{4-[4-((3R,5S)-3,5-diamino-piperidin-1-yl)-6-methoxy-[1,3,5]triazin-2-ylamino]-phenyl}-3-oxo-propionamide], the figure is below 16 µg/mL; as for `C=CCOC1OC(CO)C(O)C(O)C1Nc1nc(N2C[C@H](N)C[C@H](N)C2)nc(N2C[C@H](N)C[C@H](N)C2)n1.Cl` (stereo partly drawn) [N-(2-allyloxy-4,5-dihydroxy-6-hydroxymethyl-tetrahydro-pyran-3-yl)-4,6-Bis-((3R,5S)-3,5-diamino-piperidin-1-yl)-[1,3,5]triazine-2-amine], above 64 µg/mL; as for `Cl.N[C@@H]1C[C@H](N)CN(c2nc(Nc3ccccc3F)nc(N3C[C@H](N)C[C@H](N)C3)n2)C1` [N-(2-fluoro-phenyl)-4,6-Bis-((3R,5S)-3,5-diamino-piperidin-1-yl)-[1,3,5]triazine-2-amine], above 64 µg/mL. Same read-out and setting: for `N[C@@H]1C[C@H](N)CN(c2nc(Nc3ccccc3O)nc(N3C[C@H](N)C[C@H](N)C3)n2)C1` [N-(2-hydroxy-phenyl)-4,6-Bis-((3R,5S)-3,5-diamino-piperidin-1-yl)-[1,3,5]triazine-2-amine] the value was above 64 µg/mL.

The test is the same for the next values; noted with them: Escherichia coli, 18 h, read-out: Potency (MIC).
Take `Cc1cc(=O)oc2cc(Nc3nc(N4C[C@H](N)C[C@H](N)C4)nc(N4C[C@@H](N)[C@@H](N)C4)n3)ccc12` [7-[4-((3R,5S)-3,5-diamino-piperidin-1-yl)-6-((3R,4S)-3,4-diamino-pyrrolidin-1-yl)-[1,3,5]triazin-2-ylamino]-4-methyl-chromen-2-one]: the MIC was above 64 µg/mL.

As for `Cc1cc(=O)oc2cc(Nc3nc(N4C[C@H](N)C[C@H](N)C4)nc(N4C[C@H](CN)C[C@H](CN)C4)n3)ccc12` [7-[4-((3S,5R)-3,5-Bis-(aminomethyl)-piperidin-1-yl)-6-((3R,5S)-3,5-diamino-piperidin-1-yl)-[1,3,5]triazin-2-ylamino]-4-methyl-chromen-2-one], the minimal inhibitory concentration (MIC) was above 64 µg/mL. For the compound `Cc1cc(=O)oc2cc(Nc3nc(N(CCN)CCN)nc(N4C[C@H](N)C[C@H](N)C4)n3)ccc12` [7-[4-[Bis-(2-amino-ethyl)-amino]-6-((3R,5S)-3,5-diamino-piperidin-1-yl)-[1,3,5]triazin-2-ylamino]-4-methyl-chromen-2-one], the MIC was above 64 µg/mL.

As for `N[C@@H]1C[C@H](N)CN(c2cc(Nc3ccc([N+](=O)[O-])cc3)cc(N3C[C@H](N)C[C@H](N)C3)c2)C1` [(3,5-Bis-((3R,5S)-3,5-diamino-piperidin-1-yl)-phenyl)-(4-nitro-phenyl)-amine], the minimum inhibitory concentration (MIC) is above 64 µg/mL. Same read-out and setting: as for `CN(c1nc(N2C[C@H](N)C[C@H](N)C2)nc(N2C[C@H](N)C[C@H](N)C2)n1)C1CCN(Cc2ccccc2)C1` (stereo partly drawn) [N-(1-Benzyl-pyrrolidin-3-yl)-N-methyl-4,6-Bis-((3R,5S)-3,5-diamino-piperidin-1-yl)-[1,3,5]triazine-2-amine], the figure is below 64 µg/mL.

As to `N[C@@H]1C[C@H](N)CN(c2nc(NCc3ccc(Cl)cc3Cl)nc(N3C[C@H](N)C[C@H](N)C3)n2)C1` [N-(2,4-dichloro-benzyl)-4,6-Bis-((3R,5S)-3,5-diamino-piperidin-1-yl)-[1,3,5]triazin-2-amine], the MIC is above 64 µg/mL. Regarding `COc1cccc(OC)c1CNc1nc(N2C[C@H](N)C[C@H](N)C2)nc(N2C[C@H](N)C[C@H](N)C2)n1` [N-(2,6-dimethoxy-benzyl)-4,6-Bis-((3R,5S)-3,5-diamino-piperidin-1-yl)-[1,3,5]triazine-2-amine], the MIC is above 64 µg/mL. Consider `N[C@@H]1C[C@H](N)CN(c2nc(Nc3ccc(C(=O)CC(=O)Nc4ccccc4Cl)cc3)nc(N3C[C@@H](N)[C@@H](N)C3)n2)C1` [N-(2-Chloro-phenyl)-3-{4-[4-((3R,5S)-3,5-diamino-piperidin-1-yl)-6-((3R,4S)-3,4-diamino-pyrrolidin-1-yl)-[1,3,5]triazin-2-ylamino]-phenyl}-3-oxo-propionamide], for which the minimum inhibitory concentration (MIC) was below 64 µg/mL. On the same count and under the same terms, for `N[C@@H]1C[C@H](N)CN(c2nc(Nc3ccc(C(=O)CC(=O)Nc4ccccc4Cl)cc3)nc(N3C[C@H](O)C[C@H](O)C3)n2)C1` [N-(2-Chloro-phenyl)-3-{4-[4-((3R,5S)-3,5-diamino-piperidin-1-yl)-6-((3R,5S)-3,5-dihydroxy-piperidin-1-yl)-[1,3,5]triazin-2-ylamino]-phenyl}-3-oxo-propionamide] the value was below 64 µg/mL. As for `N[C@@H]1C[C@H](N)CN(c2nc(Nc3ccc(C(=O)CC(=O)Nc4ccccc4Cl)cc3)nc(N3C[C@@H](O)[C@@H](O)C3)n2)C1` [N-(2-Chloro-phenyl)-3-{4-[4-((3S,5R)-3,5-diamino-piperidin-1-yl)-6-((3R,4S)-3,4-dihydroxy-pyrrolidin-1-yl)-[1,3,5]triazin-2-ylamino]-phenyl}-3-oxo-propionamide], the minimum inhibitory concentration (MIC) is below 64 µg/mL.

The record behind these values is patent US7223759B2, “Antibacterial 3,5-diaminopiperidine-substituted aromatic and heteroaromatic compounds” (Anadys Pharmaceuticals, Inc., priority 2003, dated 2007).
